Experiments:
Assay in all cases: Kinobeads competition binding with immobilized CZC25342, mixed HeLa placenta lysates (Example 5, Table 7)
[1] = biological target: T1, kinases from mixed HeLa placenta lysates (Homo sapiens, UniProt Q8TD19); settings: kinase NEK9; 10 μM free compound; HeLa Placenta lysate mix
T1 construct: capturing and identification of kinases from mixed HeLa placenta lysates; endogenous in cells; host or cells: mixed lysate of HeLa cells and placenta tissue
Description: (§1) To one aliquot of cell lysate 10 μM of the free compound (FIG. 2, CZC25342) was added and allowed to bind to proteins in the lysate. Then the affinity matrix with the immobilized compound was added to capture proteins that were not interacting with the previously added free compound. Beads were separated from the lysate and bead bound proteins were eluted in SDS sample buffer and subsequently separated by SDS-Polyacrylamide gel electrophoresis (FIG. 11). Suitable gel bands were cut out and subjected to in-gel proteolytic digestion with trypsin. The second lysate aliquot was processed identically, however no free compound was added (DMSO solvent control). Peptides originating from samples 1 and 2 were labeled with iTRAQ reagents (iTRAQ 114 and iTRAQ 117) and the combined samples were analyzed with a nano-flow liquid chromatography system coupled online to a tandem mass spectrometer (LC-MS/MS) experiment followed by iTRAQ reporter ion quantification in the MS/MS spectra as described in Example 2. The identified kinases are shown in Table 7 including the percent competition values for the sample to which 10 μM free compound had been added. In total of 83 different kinases were identified and competed by different degrees.

[2] = biological target: T2, kinases from mixed HeLa placenta lysates (Homo sapiens, UniProt O75460); settings: kinase IRE1; 10 μM free compound; HeLa Placenta lysate mix
T2 construct: capturing and identification of kinases from mixed HeLa placenta lysates; endogenous in cells; host or cells: mixed lysate of HeLa cells and placenta tissue
Description: as §1

[3] = biological target: T3, kinases from mixed HeLa placenta lysates (Homo sapiens, UniProt P36894); settings: kinase BMPR1A; 10 μM free compound; HeLa Placenta lysate mix
T3 construct: capturing and identification of kinases from mixed HeLa placenta lysates; endogenous in cells; host or cells: mixed lysate of HeLa cells and placenta tissue
Description: as §1

[4] = biological target: T4, kinases from mixed HeLa placenta lysates (Homo sapiens, UniProt Q04771); settings: kinase ALK2; 10 μM free compound; HeLa Placenta lysate mix
T4 construct: capturing and identification of kinases from mixed HeLa placenta lysates; endogenous in cells; host or cells: mixed lysate of HeLa cells and placenta tissue
Description: as §1

[5] = biological target: T5, kinases from mixed HeLa placenta lysates (Homo sapiens, UniProt Q13555); settings: kinase CaMK2g; 10 μM free compound; HeLa Placenta lysate mix
T5 construct: capturing and identification of kinases from mixed HeLa placenta lysates; endogenous in cells; host or cells: mixed lysate of HeLa cells and placenta tissue
Description: as §1

[6] = biological target: T6, kinases from mixed HeLa placenta lysates (Homo sapiens, UniProt Q2M2I8); settings: kinase AAK1; 10 μM free compound; HeLa Placenta lysate mix
T6 construct: capturing and identification of kinases from mixed HeLa placenta lysates; endogenous in cells; host or cells: mixed lysate of HeLa cells and placenta tissue
Description: as §1

[7] = biological target: T7, kinases from mixed HeLa placenta lysates (Homo sapiens, UniProt Q13131); settings: kinase AMPKa1; 10 μM free compound; HeLa Placenta lysate mix
T7 construct: capturing and identification of kinases from mixed HeLa placenta lysates; endogenous in cells; host or cells: mixed lysate of HeLa cells and placenta tissue
Description: as §1

[8] = biological target: T8, kinases from mixed HeLa placenta lysates (Homo sapiens, UniProt Q9H422); settings: kinase HIPK3; 10 μM free compound; HeLa Placenta lysate mix
T8 construct: capturing and identification of kinases from mixed HeLa placenta lysates; endogenous in cells; host or cells: mixed lysate of HeLa cells and placenta tissue
Description: as §1

[9] = biological target: T9, kinases from mixed HeLa placenta lysates (Homo sapiens, UniProt Q99683); settings: kinase MAP3K5; 10 μM free compound; HeLa Placenta lysate mix
T9 construct: capturing and identification of kinases from mixed HeLa placenta lysates; endogenous in cells; host or cells: mixed lysate of HeLa cells and placenta tissue
Description: as §1

[10] = biological target: T10, kinases from mixed HeLa placenta lysates (Homo sapiens, UniProt P36897); settings: kinase TGFbR1; 10 μM free compound; HeLa Placenta lysate mix
T10 construct: capturing and identification of kinases from mixed HeLa placenta lysates; endogenous in cells; host or cells: mixed lysate of HeLa cells and placenta tissue
Description: as §1

[11] = biological target: T11, kinases from mixed HeLa placenta lysates (Homo sapiens, UniProt Q96GD4); settings: kinase AurB; 10 μM free compound; HeLa Placenta lysate mix
T11 construct: capturing and identification of kinases from mixed HeLa placenta lysates; endogenous in cells; host or cells: mixed lysate of HeLa cells and placenta tissue
Description: as §1

[12] = biological target: T12, kinases from mixed HeLa placenta lysates (Homo sapiens, UniProt Q13233); settings: kinase MAP3K1; 10 μM free compound; HeLa Placenta lysate mix
T12 construct: capturing and identification of kinases from mixed HeLa placenta lysates; endogenous in cells; host or cells: mixed lysate of HeLa cells and placenta tissue
Description: as §1

[13] = biological target: T13, kinases from mixed HeLa placenta lysates (Homo sapiens, UniProt P06241); settings: kinase FYN; 10 μM free compound; HeLa Placenta lysate mix
T13 construct: capturing and identification of kinases from mixed HeLa placenta lysates; endogenous in cells; host or cells: mixed lysate of HeLa cells and placenta tissue
Description: as §1

[14] = biological target: T14, kinases from mixed HeLa placenta lysates (Homo sapiens, UniProt P68400); settings: kinase CK2a1; 10 μM free compound; HeLa Placenta lysate mix
T14 construct: capturing and identification of kinases from mixed HeLa placenta lysates; endogenous in cells; host or cells: mixed lysate of HeLa cells and placenta tissue
Description: as §1

[15] = biological target: T15, kinases from mixed HeLa placenta lysates (Homo sapiens, UniProt P49840); settings: kinase GSK3A; 10 μM free compound; HeLa Placenta lysate mix
T15 construct: capturing and identification of kinases from mixed HeLa placenta lysates; endogenous in cells; host or cells: mixed lysate of HeLa cells and placenta tissue
Description: as §1

[16] = biological target: T16, kinases from mixed HeLa placenta lysates (Homo sapiens, UniProt Q02763); settings: kinase TIE2; 10 μM free compound; HeLa Placenta lysate mix
T16 construct: capturing and identification of kinases from mixed HeLa placenta lysates; endogenous in cells; host or cells: mixed lysate of HeLa cells and placenta tissue
Description: as §1

[17] = biological target: T17, kinases from mixed HeLa placenta lysates (Homo sapiens, UniProt Q16584); settings: kinase MLK3; 10 μM free compound; HeLa Placenta lysate mix
T17 construct: capturing and identification of kinases from mixed HeLa placenta lysates; endogenous in cells; host or cells: mixed lysate of HeLa cells and placenta tissue
Description: as §1

[18] = biological target: T18, kinases from mixed HeLa placenta lysates (Homo sapiens, UniProt Q16513); settings: kinase PKN2; 10 μM free compound; HeLa Placenta lysate mix
T18 construct: capturing and identification of kinases from mixed HeLa placenta lysates; endogenous in cells; host or cells: mixed lysate of HeLa cells and placenta tissue
Description: as §1

[19] = biological target: T19, kinases from mixed HeLa placenta lysates (Homo sapiens, UniProt P15735); settings: kinase PHKg2; 10 μM free compound; HeLa Placenta lysate mix
T19 construct: capturing and identification of kinases from mixed HeLa placenta lysates; endogenous in cells; host or cells: mixed lysate of HeLa cells and placenta tissue
Description: as §1

[20] = biological target: T20, kinases from mixed HeLa placenta lysates (Homo sapiens, UniProt P07948); settings: kinase LYN; 10 μM free compound; HeLa Placenta lysate mix
T20 construct: capturing and identification of kinases from mixed HeLa placenta lysates; endogenous in cells; host or cells: mixed lysate of HeLa cells and placenta tissue
Description: as §1

[21] = biological target: T21, kinases from mixed HeLa placenta lysates (Homo sapiens, UniProt Q13163); settings: kinase MAP2K5; 10 μM free compound; HeLa Placenta lysate mix
T21 construct: capturing and identification of kinases from mixed HeLa placenta lysates; endogenous in cells; host or cells: mixed lysate of HeLa cells and placenta tissue
Description: as §1

[22] = biological target: T22, kinases from mixed HeLa placenta lysates (Homo sapiens, UniProt P07947); settings: kinase YES; 10 μM free compound; HeLa Placenta lysate mix
T22 construct: capturing and identification of kinases from mixed HeLa placenta lysates; endogenous in cells; host or cells: mixed lysate of HeLa cells and placenta tissue
Description: as §1

[23] = biological target: T23, kinases from mixed HeLa placenta lysates (Homo sapiens, UniProt Q8TBX8); settings: kinase PIP5K2C; 10 μM free compound; HeLa Placenta lysate mix
T23 construct: capturing and identification of kinases from mixed HeLa placenta lysates; endogenous in cells; host or cells: mixed lysate of HeLa cells and placenta tissue
Description: as §1

[24] = biological target: T24, kinases from mixed HeLa placenta lysates (Homo sapiens, UniProt Q9UHD2); settings: kinase TBK1; 10 μM free compound; HeLa Placenta lysate mix
T24 construct: capturing and identification of kinases from mixed HeLa placenta lysates; endogenous in cells; host or cells: mixed lysate of HeLa cells and placenta tissue
Description: as §1

T18 sequence (Q16513 whole entry): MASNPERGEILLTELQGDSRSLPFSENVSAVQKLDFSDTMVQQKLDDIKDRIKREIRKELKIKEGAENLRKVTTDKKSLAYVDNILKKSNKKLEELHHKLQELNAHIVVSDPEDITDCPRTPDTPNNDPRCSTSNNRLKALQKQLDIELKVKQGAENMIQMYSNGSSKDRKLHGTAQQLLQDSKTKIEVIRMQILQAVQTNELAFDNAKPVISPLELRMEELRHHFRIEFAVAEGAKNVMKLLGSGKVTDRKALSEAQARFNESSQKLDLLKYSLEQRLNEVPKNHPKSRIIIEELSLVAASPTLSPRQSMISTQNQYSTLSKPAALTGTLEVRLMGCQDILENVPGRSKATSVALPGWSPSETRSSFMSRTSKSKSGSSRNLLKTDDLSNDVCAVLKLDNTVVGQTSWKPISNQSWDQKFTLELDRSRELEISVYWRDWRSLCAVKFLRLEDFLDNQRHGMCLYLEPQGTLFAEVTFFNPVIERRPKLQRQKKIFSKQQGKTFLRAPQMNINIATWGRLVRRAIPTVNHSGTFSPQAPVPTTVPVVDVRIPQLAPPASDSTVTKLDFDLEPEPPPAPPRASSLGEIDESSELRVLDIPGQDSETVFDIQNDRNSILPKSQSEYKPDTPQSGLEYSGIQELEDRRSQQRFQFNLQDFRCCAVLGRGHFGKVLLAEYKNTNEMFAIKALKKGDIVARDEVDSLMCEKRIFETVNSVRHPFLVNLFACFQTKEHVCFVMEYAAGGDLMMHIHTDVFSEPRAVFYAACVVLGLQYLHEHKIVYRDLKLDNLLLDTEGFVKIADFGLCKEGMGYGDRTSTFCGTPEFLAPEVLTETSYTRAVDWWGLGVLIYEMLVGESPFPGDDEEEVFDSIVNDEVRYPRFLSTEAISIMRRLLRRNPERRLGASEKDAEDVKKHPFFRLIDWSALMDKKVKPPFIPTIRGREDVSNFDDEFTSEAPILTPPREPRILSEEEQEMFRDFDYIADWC
T12 sequence (Q13233 whole entry): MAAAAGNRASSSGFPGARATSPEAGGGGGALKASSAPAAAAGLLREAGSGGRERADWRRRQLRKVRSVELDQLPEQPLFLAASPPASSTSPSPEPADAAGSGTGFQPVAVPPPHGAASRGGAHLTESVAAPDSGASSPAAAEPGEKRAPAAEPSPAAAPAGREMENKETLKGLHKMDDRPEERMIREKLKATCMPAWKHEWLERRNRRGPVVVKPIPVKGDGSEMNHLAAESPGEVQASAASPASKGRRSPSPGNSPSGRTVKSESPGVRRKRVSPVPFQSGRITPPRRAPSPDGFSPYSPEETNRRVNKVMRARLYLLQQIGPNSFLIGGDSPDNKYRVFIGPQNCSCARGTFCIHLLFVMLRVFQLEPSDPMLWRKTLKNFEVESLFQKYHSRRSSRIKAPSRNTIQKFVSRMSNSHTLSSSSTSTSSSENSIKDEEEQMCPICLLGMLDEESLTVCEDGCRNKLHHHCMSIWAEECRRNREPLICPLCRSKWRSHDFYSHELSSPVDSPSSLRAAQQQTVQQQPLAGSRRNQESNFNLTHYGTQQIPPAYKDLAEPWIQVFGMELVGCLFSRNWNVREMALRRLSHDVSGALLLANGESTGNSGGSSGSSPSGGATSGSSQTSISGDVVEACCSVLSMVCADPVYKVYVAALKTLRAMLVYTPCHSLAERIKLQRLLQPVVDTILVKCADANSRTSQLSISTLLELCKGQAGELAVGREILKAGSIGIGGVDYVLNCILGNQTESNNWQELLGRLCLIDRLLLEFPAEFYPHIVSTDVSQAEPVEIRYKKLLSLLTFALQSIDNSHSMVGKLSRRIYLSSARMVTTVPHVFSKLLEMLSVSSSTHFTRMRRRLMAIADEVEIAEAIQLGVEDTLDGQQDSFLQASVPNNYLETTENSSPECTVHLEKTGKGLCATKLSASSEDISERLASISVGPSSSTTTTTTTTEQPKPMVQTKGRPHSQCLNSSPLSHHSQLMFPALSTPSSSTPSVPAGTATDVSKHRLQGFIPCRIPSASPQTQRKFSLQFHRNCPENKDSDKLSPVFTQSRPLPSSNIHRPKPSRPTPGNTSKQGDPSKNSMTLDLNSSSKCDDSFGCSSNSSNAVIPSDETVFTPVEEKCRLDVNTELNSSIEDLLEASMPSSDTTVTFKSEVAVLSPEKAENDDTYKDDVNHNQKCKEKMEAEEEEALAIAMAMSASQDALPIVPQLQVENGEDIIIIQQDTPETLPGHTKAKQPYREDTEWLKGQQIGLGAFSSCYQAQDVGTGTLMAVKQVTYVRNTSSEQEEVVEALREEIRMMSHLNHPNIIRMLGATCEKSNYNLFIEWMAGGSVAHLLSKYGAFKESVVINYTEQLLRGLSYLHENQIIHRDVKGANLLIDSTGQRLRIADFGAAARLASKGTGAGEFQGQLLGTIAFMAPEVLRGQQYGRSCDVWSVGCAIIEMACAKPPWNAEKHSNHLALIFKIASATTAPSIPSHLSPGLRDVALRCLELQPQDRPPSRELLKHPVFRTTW
T1 sequence (Q8TD19 whole entry): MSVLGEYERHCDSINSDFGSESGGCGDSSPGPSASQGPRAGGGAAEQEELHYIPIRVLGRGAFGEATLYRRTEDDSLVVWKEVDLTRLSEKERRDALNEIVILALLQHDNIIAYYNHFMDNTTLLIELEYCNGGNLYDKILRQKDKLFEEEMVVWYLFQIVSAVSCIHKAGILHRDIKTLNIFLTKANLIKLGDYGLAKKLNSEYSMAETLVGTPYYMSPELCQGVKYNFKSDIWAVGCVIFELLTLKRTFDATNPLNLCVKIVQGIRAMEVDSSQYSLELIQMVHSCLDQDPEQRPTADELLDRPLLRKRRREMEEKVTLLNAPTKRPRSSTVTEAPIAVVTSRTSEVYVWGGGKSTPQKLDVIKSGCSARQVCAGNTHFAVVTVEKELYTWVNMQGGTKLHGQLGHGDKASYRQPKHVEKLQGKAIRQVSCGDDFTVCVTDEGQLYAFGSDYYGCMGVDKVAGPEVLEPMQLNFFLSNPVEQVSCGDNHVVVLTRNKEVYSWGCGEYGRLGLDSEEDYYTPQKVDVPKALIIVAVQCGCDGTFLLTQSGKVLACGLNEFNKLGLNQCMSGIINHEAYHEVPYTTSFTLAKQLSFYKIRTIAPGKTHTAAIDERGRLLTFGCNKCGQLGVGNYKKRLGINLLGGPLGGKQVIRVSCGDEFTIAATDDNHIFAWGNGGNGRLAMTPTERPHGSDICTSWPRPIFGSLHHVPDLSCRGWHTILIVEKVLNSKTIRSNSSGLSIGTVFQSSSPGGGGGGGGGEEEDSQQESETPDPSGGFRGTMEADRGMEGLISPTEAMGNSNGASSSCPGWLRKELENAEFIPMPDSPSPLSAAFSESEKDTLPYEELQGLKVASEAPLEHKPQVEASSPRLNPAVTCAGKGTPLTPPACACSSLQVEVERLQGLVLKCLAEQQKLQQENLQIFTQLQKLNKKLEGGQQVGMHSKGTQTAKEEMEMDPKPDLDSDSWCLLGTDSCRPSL
T17 sequence (Q16584 whole entry): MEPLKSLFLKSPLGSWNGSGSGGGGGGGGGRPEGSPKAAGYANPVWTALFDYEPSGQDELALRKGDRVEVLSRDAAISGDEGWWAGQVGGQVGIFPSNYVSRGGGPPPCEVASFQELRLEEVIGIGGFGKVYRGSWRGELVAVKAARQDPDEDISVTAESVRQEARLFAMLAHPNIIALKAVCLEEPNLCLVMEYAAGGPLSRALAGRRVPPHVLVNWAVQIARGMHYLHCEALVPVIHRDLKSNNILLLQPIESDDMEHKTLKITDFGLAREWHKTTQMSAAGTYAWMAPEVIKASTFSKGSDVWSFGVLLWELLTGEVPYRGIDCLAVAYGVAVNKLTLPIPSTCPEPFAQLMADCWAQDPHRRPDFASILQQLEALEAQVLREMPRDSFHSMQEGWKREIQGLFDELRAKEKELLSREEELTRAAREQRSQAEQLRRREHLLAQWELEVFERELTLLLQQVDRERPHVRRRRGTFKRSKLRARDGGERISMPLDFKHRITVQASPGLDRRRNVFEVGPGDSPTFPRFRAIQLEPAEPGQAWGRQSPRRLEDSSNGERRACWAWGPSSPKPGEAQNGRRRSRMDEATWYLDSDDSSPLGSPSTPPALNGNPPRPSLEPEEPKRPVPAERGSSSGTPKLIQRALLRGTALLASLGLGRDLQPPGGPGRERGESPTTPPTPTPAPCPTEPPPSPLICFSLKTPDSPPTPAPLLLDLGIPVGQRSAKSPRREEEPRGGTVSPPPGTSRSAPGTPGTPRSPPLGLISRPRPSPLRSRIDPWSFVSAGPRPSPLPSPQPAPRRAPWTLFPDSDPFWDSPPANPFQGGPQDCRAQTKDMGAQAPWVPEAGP
T13 sequence (P06241 whole entry): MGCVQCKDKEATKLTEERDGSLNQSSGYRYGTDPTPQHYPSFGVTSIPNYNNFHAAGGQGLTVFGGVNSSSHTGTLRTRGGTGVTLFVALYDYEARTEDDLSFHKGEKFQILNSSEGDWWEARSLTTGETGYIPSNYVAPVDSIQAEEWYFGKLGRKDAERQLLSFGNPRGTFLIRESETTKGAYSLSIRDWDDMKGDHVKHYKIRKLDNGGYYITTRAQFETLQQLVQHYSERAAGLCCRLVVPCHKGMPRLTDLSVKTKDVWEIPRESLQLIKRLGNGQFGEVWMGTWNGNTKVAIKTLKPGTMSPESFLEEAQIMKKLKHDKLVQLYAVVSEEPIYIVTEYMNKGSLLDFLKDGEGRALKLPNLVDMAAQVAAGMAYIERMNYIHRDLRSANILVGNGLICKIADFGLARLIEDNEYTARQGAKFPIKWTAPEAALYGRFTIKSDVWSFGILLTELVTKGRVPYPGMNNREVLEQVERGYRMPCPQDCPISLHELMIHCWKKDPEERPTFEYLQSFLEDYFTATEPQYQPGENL

CS(=O)(=O)Nc1ccccc1Nc1nc(Nc2cccc(OCCN)c2)ncc1F [CZC25342, N-(2-(2-(3-(2-aminoethoxy)phenylamino)-5-fluoropyrimidin-4-ylamino)phenyl)methanesulfonamide]
Competition % NEK9 [1]: 83%
Competition % IRE1 [2]: 83.4%
Competition % BMPR1A [3]: 84.1%
Competition % ALK2 [4]: 96.4%
Competition % CaMK2g [5]: 75.2%
Competition % AAK1 [6]: 95.6%
Competition % AMPKa1 [7]: 95.2%
Competition % HIPK3 [8]: 95.4%
Competition % MAP3K5 [9]: 94.1%
Competition % TGFbR1 [10]: 95.6%
Competition % AurB [11]: 93.1%
Competition % MAP3K1 [12]: 64.6%
Competition % FYN [13]: 93.2%
Competition % CK2a1 [14]: 95.2%
Competition % GSK3A [15]: 94.6%
Competition % TIE2 [16]: 91.4%
Competition % MLK3 [17]: 94.9%
Competition % PKN2 [18]: 98%
Competition % PHKg2 [19]: 93.4%
Competition % LYN [20]: 83.1%
Competition % MAP2K5 [21]: 87.4%
Competition % YES [22]: 91.7%
Competition % PIP5K2C [23]: 97.3%
Competition % TBK1 [24]: 88.8%
